Test results taken from US20250367129A1, “Lipid Compounds and Uses Thereof” (Pfizer Inc., priority 2022, published 2025).

Key:
HEK293F cells = assay: In vitro expression of novel ionizable lipid nanoparticles, high content imaging (CA HA modFlu mRNA); type: cell-based; details: LNP with CA HA modFlu mRNA
Method: (§1) Plated Hek293T or Hela cells were dosed with lipid nanoparticles in a total volume of 40 μl cell culture media and incubated overnight at 37° C. and 5% CO2. After fixation with 4% paraformaldehyde in PBS cells were washed in PBS containing 0.3% Triton-X100 and 3% BSA (w/v), followed by nuclear staining with Hoechst and antibody staining for the encoded gene of interest. Nuclear count and identification of cells stained positive for gene of interest was done on an Opera Phenix high content imager (PerkinElmer, USA).
(§2) Lipid nanoparticles were prepared and tested according to the general procedures described in U.S. Pat. No. 9,737,619 (PCT Pub. No. WO2015/199952) and U.S. Pat. No. 10,166,298 (PCT Pub. No. WO 2017/075531) and PCT Pub. No. WO2020/146805. The novel ionizable lipids of the invention, cholesterol, distearoylphosphatidylcholine (DSPC) and ALC-0159 2-[(polyethylene glycol)-2000]-N,N ditetradecylacetamide were solubilized in ethanol at a molar ratio of about 46.3:42.7:9.4:1.6. Lipid nanoparticles were made by mixing the lipids containing organic phase with the mRNA containing aqueous phase using an N:P ratio of about 6:1. The mRNA was diluted in buffer. Syringe pumps were used to mix the ethanolic lipid solution with the mRNA aqueous solution. The ethanol was then removed, and the external buffer replaced with another buffer (e.g., Tris) by dialysis. Finally, the lipid nanoparticles were filtered.
(§3) Total RNA concentration and encapsulation efficiency was assessed using the RiboGreen RNA quantitation assay. RNA integrity pre and post formulation was monitored by Agilent Fragment Analyzer capillary gel electrophoresis. Malvern Zetasizer dynamic light scattering (DLS) was used to determine LNP size and polydispersity index (PDI). In vitro expression of the novel ionizable lipid nanoparticles was assessed in HEK293F and Hela cells similar to described in Example 72. Nuclear count and identification of cells stained positive for gene of interest was done on an Opera Phenix high content imager (PerkinElmer, USA).

Hela cells = assay: as above; type: cell-based; details: LNP with CA HA modFlu mRNA
Method: as §1, §2, §3

[1] = Encapsulation efficiency, RiboGreen RNA quantitation assay (CA HA modFlu mRNA LNPs); type: physicochemical; details: LNP with CA HA modFlu mRNA
Method: as §2, §3

[2] = LNP size and polydispersity index by Malvern Zetasizer dynamic light scattering (CA HA modFlu mRNA LNPs); type: physicochemical; details: DLS; for Size (nm): LNP of the ionizable lipid:cholesterol:DSPC:ALC-0159 about 46.3:42.7:9.4:1.6, N:P about 6:1, CA HA modFlu mRNA; for PDI: LNP with CA HA modFlu mRNA
Method: as §2, §3

Compound	EC50 Hek293F (ng/well) (HEK293F cells)	EC50 Hela (ng/well) (Hela cells)	EE % [1] [%]	Size (nm) [2] [nm]	PDI [2]
CCCCCCCC(CCCCCCC)C(=O)O[C@@H]1CC2(CCN(CCCNc3c(NC)c(=O)c3=O)CC2)C[C@H]1OC(=O)C(CCCCCCC)CCCCCCC (racemic) [Example 55, rac-(2R,3R)-8-(3-((2-(methylamino)-3,4-dioxocyclobut-1-en-1-yl)amino)propyl)-8-azaspiro[4.5]decane-2,3-diyl bis(2-heptylnonanoate)]	21.4	45.0	100	65	0.124
CCCCCCC(CCCC)(CCCC)CC(=O)OCC(COC(=O)CC(CCCC)(CCCC)CCCCCC)N1CCC2(CCN(CCCCO)CC2)CC1 [Example 39, 2-(9-(4-hydroxybutyl)-3,9-diazaspiro[5.5]undecan-3-yl)propane-1,3-diyl bis(3,3-dibutylnonanoate)]	4.1	3.4	100	134	0.080
CCCCCCCC(CCCCCCC)C(=O)OCC(COC(=O)C(CCCCCCC)CCCCCCC)N1CCC2(CCN(CCCO)CC2)CC1 [Example 10, 2-(9-(3-hydroxypropyl)-3,9-diazaspiro[5.5]undecan-3-yl)propane-1,3-diyl bis(2-heptylnonanoate)]	1.3	1.5	99	109	0.054
CCCCCCCC(CCCCCCC)C(=O)OCC(COC(=O)C(CCCCCCC)CCCCCCC)N1CCC2(CCN(CCCCCO)CC2)CC1 [Example 25, 2-(9-(5-hydroxypentyl)-3,9-diazaspiro[5.5]undecan-3-yl)propane-1,3-diyl bis(2-heptylnonanoate)]	0.42	0.61	99	137	0.040
CCCCCCCCC(C(=O)OCC(COC(=O)C(CCCCCCCC)C1CCC1)N1CCC2(CCN(CCCCO)CC2)CC1)C1CCC1 (stereo not drawn) [Example 4, 2-(9-(4-hydroxybutyl)-3,9-diazaspiro[5.5]undecan-3-yl)propane-1,3-diyl bis(2-cyclobutyldecanoate)]	46.9	>50	98	97	0.170
CCCCCCCC(CCCCCCC)C(=O)OCC(COC(=O)C(CCCCCCC)CCCCCCC)N1CC2(CCN(CCCCCO)CC2)C1 [Example 18, 2-(7-(5-hydroxypentyl)-2,7-diazaspiro[3.5]nonan-2-yl)propane-1,3-diyl bis(2-heptylnonanoate)]	0.57	1.4	99	149	0.060
CCCCCCCC(CCCCCCC)C(=O)OCC(COC(=O)C(CCCCCCC)CCCCCCC)N1CCC2(CCN(CCCCCO)C2)CC1 [Example 48, 2-(2-(5-hydroxypentyl)-2,8-diazaspiro[4.5]decan-8-yl)propane-1,3-diyl bis(2-heptylnonanoate)]	0.76	1.0	100	127	0.093
CCCCCCCCC(CCCCCC)C(=O)OCCC(CCOC(=O)C(CCCCCC)CCCCCCCC)N1CCC2(CCN(CCCCO)CC2)CC1 (stereo not drawn) [Example 15, 3-(9-(4-hydroxybutyl)-3,9-diazaspiro[5.5]undecan-3-yl)pentane-1,5-diyl bis(2-hexyldecanoate)]	4.0	2.7	100	110	0.120
CCCCCCCCC(CCCCCC)C(=O)OCCCC(COC(=O)C(CCCCCC)CCCCCCCC)N1CCC2(CCN(CCCCO)CC2)CC1 (stereo not drawn) [Example 19, 2-(9-(4-hydroxybutyl)-3,9-diazaspiro[5.5]undecan-3-yl)pentane-1,5-diyl bis(2-hexyldecanoate)]	1.4	0.89	99	153	0.140
CCCCCCCCCC(CCCC)C(=O)OCC(COC(=O)C(CCCCCC)CCCCCCCC)N1CCC2(CCN(CCCCO)CC2)CC1 (stereo not drawn) [Example 45, 3-((2-hexyldecanoyl)oxy)-2-(9-(4-hydroxybutyl)-3,9-diazaspiro[5.5]undecan-3-yl)propyl 2-butylundecanoate]	1.1	1.1	99	117	0.060
CCCCCCCC(CCCCCCC)C(=O)OCC(COC(=O)C(CCCCCCC)CCCCCCC)N1CCC2(CCN(CCCCO)C2)CC1 [Example 22, 2-(2-(4-hydroxybutyl)-2,8-diazaspiro[4.5]decan-8-yl)propane-1,3-diyl bis(2-heptylnonanoate)]	0.14	0.39	99	107	0.065
CCCCCCCCC(CCCCCC)C(=O)OCC(COC(=O)C(CCCCCCCC)CC1CCC1)N1CCC2(CCN(CCCCO)CC2)CC1 (stereo not drawn) [Example 44, 3-((2-(cyclobutylmethyl)decanoyl)oxy)-2-(9-(4-hydroxybutyl)-3,9-diazaspiro[5.5]undecan-3-yl)propyl 2-hexyldecanoate]	0.28	0.30	99	119	0.080
CCCCCCCC(CCCCCCC)C(=O)OCC(COC(=O)C(CCCCCCC)CCCCCCC)N1CCC2(CCN(CCCCCO)C2)C1 (stereo not drawn) [Example 41, 2-(7-(5-hydroxypentyl)-2,7-diazaspiro [4.4]nonan-2-yl)propane-1,3-diyl bis(2-heptylnonanoate)]	0.20	0.30	99	119	0.060
CCCCCCCC(CCCCCCC)C(=O)O[C@H]1CC2(CCN(CCCCO)CC2)C[C@@H]1OC(=O)C(CCCCCCC)CCCCCCC (single isomer, unassigned) [Example 58, (2S*,3S*)-8-(4-hydroxybutyl)-8-azaspiro[4.5]decane-2,3-diyl bis(2-heptylnonanoate)]	1.6	1.7	98	79	0.125
CCCCCCCCC(CCCCCC)C(=O)O[C@@H]1CC2(CCN(CCCCO)CC2)C[C@H]1OC(=O)C(CC)CCCCCCC (mixture of isomers) [Example 70, rac-(2R,3R)-3-((2-ethylnonanoyl)oxy)-8-(4-hydroxybutyl)-8-azaspiro[4.5]decan-2-yl 2-hexyldecanoate]	3.0	1.2	98	116	0.110
CCCCCCCC(CCCCCCC)C(=O)OCC(COC(=O)C(CCCCCCC)CCCCCCC)N1CCC2(CCN(CCCCO)C2)C1 (stereo not drawn) [Example 12, 2-(7-(4-hydroxybutyl)-2,7-diazaspiro[4.4]nonan-2-yl)propane-1,3-diyl bis(2-heptylnonanoate)]	0.22	0.44	100	105	0.042
CCCCCCCCCC(CCCCCC)C(=O)O[C@@H]1CC2(CCN(CCCCO)CC2)C[C@H]1OC(=O)C(CCCCCC)CCCCCCCCC (mixture of isomers) [Example 67, rac-(2R,3R)-8-(4-hydroxybutyl)-8-azaspiro[4.5]decane-2,3-diyl bis(2-hexylundecanoate)]	1.4	2.0	96	89	0.127
CCCCCCCC(CCCCCCC)C(=O)O[C@@H]1CC2(CCN(CCCO)C2)C[C@H]1OC(=O)C(CCCCCCC)CCCCCCC (racemic) [Example 53, rac-(7R,8R)-2-(3-hydroxypropyl)-2-azaspiro[4.4]nonane-7,8-diyl bis(2-heptylnonanoate)]	2.3	29.5	94	89	0.090
